Measurements reported in patent US20260256756A1, “USE OF PIPERIDINE ALKENE COMPOUND IN PREPARATION OF DRUG FOR TREATING CANCER” (JIANGSU HANSOH PHARMACEUTICAL GROUP CO., LTD., priority 2023, published 2026).

Tests used:
[1] = test system: OVCAR-3 cells; assay: In vitro proliferation inhibition (CellTiter-Glo), OVCAR-3; assay type: cell-based; conditions: Homo sapiens; OVCAR-3, ovarian cancer; 6-10 days culture
From the text: […]
Experimental data processing method: The luminescence signal value was used to calculate the inhibition rate. […]

[2] = test system: human ovarian cancer OV-10-0060 xenograft tumor; assay: Subcutaneous xenograft tumor model of human ovarian cancer OV-10-0060; assay type: in vivo, BALB/c nude mice
From the text: • 1. Experimental objective: To evaluate the in vivo efficacy of the compound in a subcutaneous xenograft tumor model of human ovarian cancer OV-10-0060 in nude mice. • 2. Reagent • HPMC (A1921068, Shanghai Aladdin Biochemical Technology Co., Ltd.), DMEM medium (11995-065, Gibco) • 3. Experimental operations and data processing • 3.1 Animals: BALB/c nude mice, 6-8 weeks old, female, purchased from the Laboratory Animal Business Department of Shanghai Institute of Planned Parenthood Research. • 3.2 Animal modeling • Tumor tissues were harvested from ovarian cancer xenograft model OV-10-0060 tumor-bearing mice and cut into tumor fragments with a diameter of 2-3 mm, which were subcutaneously inoculated into the right anterior scapula region of BALB/c nude mice. • 3.3 Tumor measurement and grouping in tumor-bearing mice • Prior to drug administration, all animals were weighed, and tumor volumes were measured using a vernier caliper. The tumor volume was calculated as: tumor volume (mm^3)=length (mm)×width (mm)×width (mm)/2. According to the body weight of tumor-bearing mice and the size of the tumor, the mice were grouped by random grouping. • 3.4 Administration in tumor-bearing mice • According to the grouping results, the test drug was started to be administered (administration method: oral administration; administration volume: 10 mL/kg; administration frequency: once/day; administration cycle: 28 days; vehicle: 0.5% HPMC). Tumor measurement and weighing were performed twice a week after starting administration of test drugs. The animals were euthanized at the end of the experiment. • 3.5 Data processing • Data processing was performed using software such as GraphPad Prism. The tumor inhibitory efficacy of the compound was evaluated by TGI (%) and ΔT/ΔC (%). ΔT/ΔC (%)=(T−T0)/(C−C0)×100, where T and C are the tumor volumes of the treatment group and the vehicle control group at the end of the experiment, respectively, and T0 and C0 are the tumor volumes of the treatment group and the vehicle control group at the beginning of the experiment, respectively. Tumor growth inhibition (TGI) (%)=100−ΔT/ΔC (%). Tumor growth inhibition (TGI) (%)=100−(T−T0)/T0×100 when tumor regression occurs • 4. Experimental results and conclusions

[3] = OV-10-0060, 10 mg/kg oral once/day, Day 27
[4] = OV-10-0060, 100 mg/kg oral once/day, Day 27

SMILES | IC50 [1] [µM] | Tumor volume (Mean ± SEM) ([2]; OV-10-0060, 10 mg/kg oral once/day, Day 0) [mm^3] | T/C [2, 3] [%] | TGI [2, 3] [%] | Tumor volume (Mean ± SEM) [2, 3] | Tumor volume (Mean ± SEM) ([2]; OV-10-0060, 100 mg/kg oral once/day, Day 0) [mm^3] | T/C [2, 4] [%] | TGI [2, 4] [%] | Tumor volume (Mean ± SEM) [2, 4]
CCc1cc2ncc(CN3CCN(c4ccc(C(=O)NC)nc4)CC3)cc2[nH]c1=O [AZD5305] | 0.0051 ± 0.0014 | 124 ± 4 | 61.08 | 41.19 | 1,378 ± 99 mm^3 | – | – | – | –
O=C(c1cc(Cc2n[nH]c(=O)c3ccccc23)ccc1F)N1CCN(C(=O)C2CC2)CC1 [Olaparib] | 0.319 ± 0.047 | – | – | – | – | 124 ± 4 | 79.24 | 22.00 | 1,787 ± 158 mm^3
